Experimental data from patent US12188936B2, “Biomarkers and therapeutics for endocrine therapy resistance” (LUNELLA BIOTECH, INC., priority 2018, dated 2025).

Experiments:
[1] = test system: other MCF7 cell lines (ESR1 WT, Y537N, ErbB2, EV); conditions: 4-OHT 1 μM, 5 days
Protocol: To directly determine the validity of our model system, MCF7-Y537S cells were cultured for 5 days in the presence of Tamoxifen (1 μM) to assess its effect on cell viability. […] MCF7 cells were stably-transduced with either ESR1 (WT, Y537S, or Y537N) or ErbB2 (HER2), to genetically create a clinically relevant model of endocrine therapy resistance. Vector alone control MCF7 cells were generated in parallel (empty vector; EV; p-EV-105-puroR), as a negative control. […] The SRB assay was performed as a measure of cell viability and the experiment was carried out for 5 days.
Sulfo-rhodamine B (SRB) assay: SRB measures total biomass by staining cellular proteins.

MCF7-Y537S cells [2] = assay: SRB survival assay (cell viability), 5-day exposure; type: cell-based, human; conditions: 4-OHT 1 μM, 5 days, vs control
Excerpt: For FIG. 1, ** indicates p<0.005.

[3] = test system: transfected MCF7 cell lines; assay: Annexin-V analysis (apoptosis, FACS); type: cell-based, human; conditions: 1 μM for 72 hours
Excerpt: (§1) One mechanism by which the Y537S mutation may promote mammosphere formation in the presence of Tamoxifen is by conferring resistance to apoptosis. Staining with annexin V may be used to detect apoptotic cells by its ability to bind to phosphatidylserine, a marker of apoptosis when it is on the outer leaflet of the plasma membrane. Increases in annexin V staining indicates an increase in apoptosis.
(§2) The data in FIGS. 4A-4C were obtained as follows. The transduced MCF7 cell lines were all plated in 6-well plates. On the next day, the cells were treated with 4-OHT (1 μM) for 72 hours. MCF7-EV cells were processed in parallel, as a negative control. […] For the data in these drawings, * indicates p<0.05.
(§3) Annexin-V analysis: Cell death was quantified by flow cytometry using propidium iodide (PI) and Annexin V-FITC (20). Briefly, 1.5×10^5 all the transfected cells were plated in 6 multi-well plate in complete media supplemented with 10% HiFBS. The next day, cells were treated with 1 μM of 4-OH-Tamoxifen (4-OHT) for 48 h and 72 h. Vehicle alone (DMSO) for control cells were processed in parallel. After 48 hours, cells were harvested and washed in cold phosphate-buffered saline (PBS). […] Cells were then analyzed by flow cytometry using a PE Texas Red signal detector for PI staining and a FITC signal detector to detect Annexin V binding. 30,000 events were recorded by FACS using Fortessa BD. […]

MCF7-Y537S cells [4] = assay: Annexin-V analysis (apoptosis, FACS); type: cell-based, human; conditions: 1 μM for 72 hours
Excerpt: as §1, §2, §3

[5] = test system: transfected MCF7 cell lines (other than Y537S and ESR1 WT); assay: Mammosphere formation assay; type: cell-based, human; conditions: all transfected MCF7 cell lines except Y537S and ESR1 (WT), 72-hour pre-treatment with 1 μM, 5 days culture
Protocol: (§4) All of the transfected MCF7 cell lines were grown as mammospheres. […] In these figures, ** indicates p<0.005; and ns indicates not significant as evaluated by Student's t test.
(§5) MCF7 3D-mammosphere formation: A single cell suspension was prepared using enzymatic (lx Trypsin-EDTA, Sigma Aldrich, #T3924), and manual disaggregation (25 gauge needle). Cells were plated at a density of 500 cells/cm^2 in mammosphere medium (DMEM-F12+B27+20 ng/ml EGF+PenStrep) under non-adherent conditions, in culture dishes pre-coated with (2-hydroxyethylmethacrylate) (poly-HEMA, Sigma, #P3932), called “mammosphere plates.” Then, the cells were pre-treated for 72 hours with 1 μM of 4-OH-Tamoxifen. Vehicle alone (DMSO) control cells were processed in parallel. Afterwards, they were trypsined and seeded in mammosphere plates. Cells were grown for 5 days and maintained in a humidified incubator at 37° C. After 5 days of culture, 3D-spheres>50 μm were counted using an eye piece (“graticule”), and the percentage of cells plated which formed spheres was calculated and is referred to as percent mammosphere formation, and was normalized to one (1=100% MSF).

MCF7-Y537S cells [6] = assay: Mammosphere formation assay; type: cell-based, human; conditions: 72-hour pre-treatment with 1 μM, 5 days culture
Protocol: as §4, §5

CC/C(=C(\c1ccc(O)cc1)c1ccc(OCCN(C)C)cc1)c1ccccc1 [4-OHT, 4-OH-Tamoxifen]
cell viability (SRB survival) [1]: significant inhibitory effects | cell viability (SRB survival) (MCF7-Y537S cells [2]): clearly show resistance | annexin V levels [3]: increased in all transfected cell lines | pro-apoptotic effect (annexin V levels) (MCF7-Y537S cells [4]): specifically resistant to the pro-apoptotic effects | mammosphere formation efficiency (MFE) [5]: inhibited mammosphere formation efficiency | mammosphere formation (MCF7-Y537S cells [6]): remain largely unaffected
